Earlier results as cited in patent US5811400A, “Peptide derivatives with δ opioid receptor antagonist or mixed μ agδ antagonist effects” (Astra AB, priority 1994, dated 1998).

Tested on: μ opioid receptors
Conditions: GPI assay

With `Oc1ccc2c3c1O[C@H]1c4[nH]c5ccccc5c4C[C@@]4(O)[C@@H](C2)N(CC2CC2)CC[C@]314` [naltrindole] as the compound, how does the “μ antagonist properties (Ke)” value read?
Its value is 29 nM.
